Entries after “also recorded” stand apart in the source; their conditions may differ. Like-named read-outs stand apart in the source and are kept apart here.
Experiments:
[1] = target: T1, butyrylcholinesterase (BChE, EC3.1.1.8) (Equus caballus, UniProt P81908); test: In vitro cholinesterase activity assay (Ellman) and enzyme kinetics, BChE; assay type: biochemical; conditions: for BChE inhibition / IC50 rank, in words: among the compounds tested; for SI selectivity index (BChE/AChE): ratio of IC50 BChE/AChE; for Inhibition type Butyrylcholinesterase: Dixon plot and Lineweaver plot
T1 construct: horse serum butyrylcholinesterase (BChE, EC3.1.1.8); purchased Sigma-Aldrich Co. (St. Louis, Mo., USA); host or cells: horse serum
T1 sequence (P81908 whole entry): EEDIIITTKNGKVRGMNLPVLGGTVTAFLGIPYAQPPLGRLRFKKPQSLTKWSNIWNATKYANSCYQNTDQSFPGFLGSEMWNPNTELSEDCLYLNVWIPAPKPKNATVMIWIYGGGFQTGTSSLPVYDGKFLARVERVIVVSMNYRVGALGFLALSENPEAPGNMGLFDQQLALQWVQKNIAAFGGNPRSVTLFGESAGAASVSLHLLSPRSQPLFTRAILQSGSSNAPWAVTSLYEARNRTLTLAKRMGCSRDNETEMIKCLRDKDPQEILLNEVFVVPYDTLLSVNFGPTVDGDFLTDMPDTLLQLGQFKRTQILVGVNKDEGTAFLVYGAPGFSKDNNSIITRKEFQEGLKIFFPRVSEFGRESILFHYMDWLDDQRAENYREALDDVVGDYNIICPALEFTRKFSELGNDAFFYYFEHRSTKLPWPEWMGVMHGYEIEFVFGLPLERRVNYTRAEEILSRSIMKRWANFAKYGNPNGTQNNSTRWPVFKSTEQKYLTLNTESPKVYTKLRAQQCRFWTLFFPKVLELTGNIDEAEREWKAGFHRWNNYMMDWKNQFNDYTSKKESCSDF
Method: (§1) The reaction started with the addition of 10 μL of DTNB and 10 μL of Ach or Bch.
(§2) Briefly, the basis for this assay is the hydrolysis of acetylthiocholine by acetylcholinesterase, producing thiocholine that reacts with DTNB. […] Degrees of inhibition were calculated according to […] wherein E and S represent enzyme activities in the presence and absence of a test sample, respectively.
(§3) The compounds of Table 1 were evaluated for anti-Alzheimer activity. In this regard, inhibitory activity against AChE (acetylcholinesterase) and BChE (butyrylcholinesterase), which lyse acetylcholine in the central nervous system, was measured according to the Experimental Method to calculate IC(inhibition concentrations)50 values.

[2] = system: NIH3T3 (mouse embryo fibroblast cell-line); test: MTT cytotoxicity assay, normal cell line; assay type: cell-based; conditions: conclusion from LD50, MTT
Method: (§4) Mouse fibroblast cell line NIH3T3 and mouse melanoma cell line B16F10 were separately seeded at a density of 1×10^3 cells/well into 96-well plates and grown in DMEM supplemented with 10% FBS (fetal bovine serum) at 37° C. in a 5% CO2 atmosphere. The cells in each cell were incubated for 24 hours with predetermined concentrations of each of the compounds (pterosin A, pterosin B, pterosin C, pterosin D, pterosin P, pterosin Z, pteroside A, pteroside A2, pteroside B, pteroside C isomers, pteroside D, pteroside N, pteroside P, and pteroside Z) and then for 2 hours with 100 μL of MTT (0.5 mg/ml PBS). After aspiration of the medium from each well, incubation was conducted for 10 min with 100 μL of DMSO. Absorbance at 570 nm was read using a microplate reader (SPCTRA MAX 340PC, Molecular Devices, USA). Absorbance is an index accounting for a number of viable cells and was used to calculate cell proliferation rates according to the following formula. All experiments were conducted three times for reproducibility.
(§5) Cell proliferation rate (%)=OD550 (sample)/OD550 (control)
(§6) The normal cell line NIH3T3 (mouse embryo fibroblast cell-line) and the cancerous cell line B16F10 (mouse melanoma cell-line) were separately grown in 96-well plates and incubated for 48 hours with predetermined concentrations of each of the compounds. After additional incubation with MTT, absorbance at 550 nm was read using a microplate reader. Absorbance is an index accounting for a number of viable cells and was used to calculate cell proliferation rates according to the following formula. All experiments were conducted three times for reproducibility.
(§7) Cell proliferation rate (%)=OD550(sample)/OD550(control)
(§8) Then, LD50 (Lethal Dose 50) values were calculated on the basis of changes in the cell proliferation rate.

[3] = system: B16F10 (mouse melanoma cell-line); test: MTT cytotoxicity assay, cancerous cell line; assay type: cell-based; conditions: for LD50 Cancer cell 816F10: MTT, incubated for 48 hours with compound; for toxicity to cancerous cells, in words: conclusion from LD50, MTT
Method: as §4, §5, §6, §7, §8

[4] = target: BACE1 (β-secretase, recombinant human enzyme) (Homo sapiens, UniProt P56817); test: biochemical; assay type: biochemical; conditions: for Inhibition type BACE1: Dixon plot and Lineweaver plot; for BACE1 IC50 compared with quercetin, in words: positive control quercetin
Sequence of BACE1 (β-secretase, recombinant human enzyme) (P56817 46-501): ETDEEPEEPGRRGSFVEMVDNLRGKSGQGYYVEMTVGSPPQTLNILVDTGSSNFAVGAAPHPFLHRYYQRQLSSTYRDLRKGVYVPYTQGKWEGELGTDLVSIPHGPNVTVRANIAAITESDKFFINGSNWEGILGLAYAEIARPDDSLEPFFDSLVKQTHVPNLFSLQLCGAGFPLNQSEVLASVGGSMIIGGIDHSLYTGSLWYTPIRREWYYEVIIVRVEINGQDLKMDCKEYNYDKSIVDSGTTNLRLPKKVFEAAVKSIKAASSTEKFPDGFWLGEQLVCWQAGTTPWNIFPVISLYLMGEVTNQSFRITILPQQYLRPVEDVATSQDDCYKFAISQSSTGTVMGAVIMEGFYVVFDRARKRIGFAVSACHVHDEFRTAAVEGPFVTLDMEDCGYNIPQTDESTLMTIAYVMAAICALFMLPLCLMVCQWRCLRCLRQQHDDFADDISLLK
Method: A BACE1 fluorescence resonance energy transfer (FRET) assay kit (β-secretase, recombinant human enzyme) was purchased from Pan Vera Co. (Madison, Wis., USA).
BACE1 is an enzyme promotive of the production of β-amyloid, which destroys neurons. In order to examine the effects on the compounds of Table 1 on the activity of BACE1, IC(inhibition concentrations)50 values were determined by measuring BACE1 activity in vitro according to Experimental Methods.

[5] = target: T2, acetylcholinesterase (AChE, EC3.1.1.7) (Electrophorus electricus, UniProt O42275); test: In vitro cholinesterase activity assay (Ellman) and enzyme kinetics, AChE; assay type: biochemical; conditions: for AChE inhibition / IC50 rank, in words: among the compounds tested; for Inhibition type Acetylcholinesterase: Dixon plot and Lineweaver plot
T2 construct: purchased Sigma-Aldrich Co. (St. Louis, Mo., USA)
T2 sequence (O42275 24-633): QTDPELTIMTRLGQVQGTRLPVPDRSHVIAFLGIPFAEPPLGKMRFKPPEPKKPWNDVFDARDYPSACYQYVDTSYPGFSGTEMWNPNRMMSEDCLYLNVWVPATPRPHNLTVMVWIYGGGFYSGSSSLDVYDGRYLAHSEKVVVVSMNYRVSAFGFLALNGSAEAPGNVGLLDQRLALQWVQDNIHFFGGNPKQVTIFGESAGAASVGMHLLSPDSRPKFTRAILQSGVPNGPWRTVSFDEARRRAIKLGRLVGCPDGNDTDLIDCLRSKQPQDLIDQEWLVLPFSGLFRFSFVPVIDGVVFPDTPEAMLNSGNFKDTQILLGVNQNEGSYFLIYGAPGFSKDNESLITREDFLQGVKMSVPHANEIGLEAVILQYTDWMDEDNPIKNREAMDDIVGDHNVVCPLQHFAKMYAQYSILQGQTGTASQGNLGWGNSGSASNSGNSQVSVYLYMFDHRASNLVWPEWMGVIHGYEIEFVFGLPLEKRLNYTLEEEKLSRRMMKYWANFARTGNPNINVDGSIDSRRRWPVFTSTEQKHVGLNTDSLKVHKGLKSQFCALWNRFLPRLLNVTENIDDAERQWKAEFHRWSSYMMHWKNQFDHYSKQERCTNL
Method: as §1, §2, §3

[6] = concentrations up to 125 μM, read-out: IC50 Butyrylcholine esterase Mean ± SEM
[7] = concentrations up to 125 μM, read-out: IC50 Acetylcholine esterase Mean ± SEM

| SMILES | SI selectivity index (BChE/AChE) [1] | IC50 [4] [µM] | Inhibition type BACE1 [4] | BACE1 IC50 compared with quercetin, in words [4] | other results |
| --- | --- | --- | --- | --- | --- |
| Cc1cc2c(c(C)c1CCO[C@@H]1OC(CO)[C@@H](O)[C@H](O)C1O)C(=O)C(C)(C)C2 (stereo partly drawn) [Compound 20, pteroside Z] | 0.24 |  |  |  | BChE inhibition / IC50 rank, in words [1]: excellent |
| CC(=O)C1(/C(C)=C\C2=CC(=O)C(C)C2)CC1 (stereo not drawn) [Compound 2, 3-[2-(1-Acetylcyclopropyl)-1-propenyl)-5-methyl-2-cyclopenten-1-one] | 0.83 | 19.4 ± 1.7 | mixed type | lower than or similar to that of quercetin | toxicity to normal cells, in words [2]: almost non-toxic; toxicity to normal cells, in words ([2]; listed as compound of Chemical Formula 2): non-toxic; IC50 [1]: 72.9 ± 0.73 µM; LD50 Cancer cell 816F10 [3]: 688 µM; toxicity to cancerous cells, in words [3]: slightly toxic; IC50 [5]: 87.7 ± 1.6 µM; AChE inhibition / IC50 rank, in words [5]: highest |
| Cc1c(CCO)c(CO)cc2c1C(=O)[C@@H](C)C2 [Compound 10, (2S)-pterosin P] | 3.1 | 40.8 ± 4.1 |  |  |  |
| Cc1cc2c(c(C)c1CCO)C(=O)[C@](C)(COC1O[C@H](CO)[C@@H](O)[C@H](O)[C@H]1O)C2 (stereo partly drawn) [Compound 13, (2S)-pteroside A2] | 3.0 | 94.4 ± 4.5 |  |  | IC50 [1]: 119 ± 2.5 µM |
| Cc1cc2c(c(C)c1CCO)C(=O)C(C)(C)[C@@H]2O [Compound 9, (3R)-Pterosin D] |  | 56.3 ± 3.9 |  |  | IC50 [1]: > 12 µM; BChE inhibition / IC50 rank, in words [1]: highest |
| Cc1cc2c(c(C)c1CCO[C@@H]1OC(CO)[C@@H](O)[C@H](O)C1O)C(=O)[C@](C)(CO)C2 (stereo partly drawn) [Compound 12, (2S)-pteroside A] |  |  |  |  | IC50 [1, 6]: 199 ± 0.25 µM |
| Cc1cc2c(c(C)c1CCO)C(=O)[C@@H](C)[C@@H]2O [Compound 6, (2S,3S)-pterosin C] |  |  |  | lower than or similar to that of quercetin | BChE inhibition / IC50 rank, in words [1]: excellent |
| Cc1cc2c(c(C)c1CCO[C@@H]1OC(CO)[C@@H](O)[C@H](O)C1O)C(=O)[C@](C)(O)C2 (single isomer, unassigned; (-)) [Compound 18, (−)-pteroside N] | 1.7 |  |  |  |  |
| Cc1cc2c(c(C)c1CCO[C@@H]1OC(CO)[C@@H](O)[C@H](O)C1O)C(=O)[C@H](C)C2 (stereo partly drawn) [Compound 14, (2R)-pteroside B] |  |  | noncompetitive |  | Inhibition type Butyrylcholinesterase [1]: mixed; BChE inhibition / IC50 rank, in words [1]: excellent; IC50 [1, 6]: 17 µM; Inhibition type Acetylcholinesterase [5]: mixed; AChE inhibition / IC50 rank, in words [5]: lowest; also recorded: excellent |
| Cc1cc2c(c(C)c1CCO)C(=O)[C@](C)(CO)C2 [Compound 3, (2S)-pterosin A] | 12 | 64.9 ± 5.1 |  |  | IC50 [1, 6]: 57.3 ± 3.3 µM; LD50 Cancer cell 816F10 [3]: 522 ± 25 µM; toxicity to cancerous cells, in words [3]: slight cytotoxicity; IC50 [5, 7]: 88.7 ± 2.6 µM |
| Cc1cc2c(c(C)c1CCO[C@@H]1OC(CO)[C@@H](O)[C@H](O)C1O)C(=O)C(C)(C)[C@H]2O (stereo partly drawn) [Compound 17, (3S)-pteroside D] | 0.70 |  | mixed | lower than or similar to that of quercetin |  |
| Cc1cc2c(c(C)c1CCO)C(=O)C(C)(C)C2 [Compound 11, pterosin Z] | 1.7 | 48.7 ± 3.2 |  |  | toxicity to normal cells, in words [2]: slightly toxic; LD50 Cancer cell 816F10 [3]: 618 ± 71 µM; toxicity to cancerous cells, in words [3]: slightly toxic |
| Cc1cc2c(c(C)c1CCO[C@@H]1OC(CO)[C@@H](O)[C@H](O)C1O)C(=O)[C@H](C)[C@H]2O (stereo partly drawn) [Compound 16, (2R,3R)-pteroside C] | 1.4 |  | mixed | lower than or similar to that of quercetin | BChE inhibition / IC50 rank, in words [1]: lowest; AChE inhibition / IC50 rank, in words [5]: excellent |
| Cc1cc2c(c(C)c1CCO[C@@H]1OC(CO)[C@@H](O)[C@H](O)C1O)C(=O)[C@@H](C)[C@H]2O (stereo partly drawn) [Compound 15, (2S,3R)-pteroside C] | 1.4 |  |  |  | IC50 [1, 6]: 12 ± 0.14 µM; IC50 [5, 7]: 9.57 ± 0.32 µM |
| Cc1c(CCO[C@@H]2OC(CO)[C@@H](O)[C@H](O)C2O)c(CO)cc2c1C(=O)[C@@H](C)C2 (stereo partly drawn) [Compound 19, (2S)-pteroside P] | 0.57 |  |  |  |  |
| Cc1cc2c(c(C)c1CCO)C(=O)[C@@H](C)[C@H]2O [Compound 8, (2S,3R)-pterosin C] | 3.5 | 14.1 ± 1.6 | noncompetitive | lower than or similar to that of quercetin | Inhibition type Butyrylcholinesterase [1]: noncompetitive; Inhibition type Acetylcholinesterase [5]: mixed |
| Cc1cc2c(c(C)c1CCO)C(=O)[C@H](C)C2 [Compound 4, (2R)-pterosin B] | 3.0 | 18 ± 2 | noncompetitive |  | Inhibition type Butyrylcholinesterase [1]: noncompetitive; Inhibition type Acetylcholinesterase [5]: mixed; AChE inhibition / IC50 rank, in words [5]: excellent |
| Cc1cc2c(c(C)c1CCO)C(=O)[C@H](C)[C@H]2O [Compound 7, (2R,3R)-pterosin C] | 0.88 | 15.9 ± 3.5 | mixed | lower than or similar to that of quercetin | Inhibition type Butyrylcholinesterase [1]: mixed; Inhibition type Acetylcholinesterase [5]: noncompetitive |

Source: US20220257532A1 (priority 2017, published 2022)
